# Experimental data: patent US11685746B2, “Heteroaryl compounds for treating Huntington's disease” (PTC THERAPEUTICS, INC., priority 2018, dated 2023)
# Tested on: Endogenous Huntingtin Protein
# Assay: Endogenous Huntingtin Protein Assay (MSD plates, MW1 or MAB2166 capture antibody)
# Format: cell-based
# Conditions: Table 1
# Summary of the method: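 Endogenous huntingtin was captured overnight at 4° C on wells coated with 1 μg/mL MW1 (polyglutamine-specific) or MAB2166. Detection used rabbit #5656S and then goat anti-rabbit SULFO-TAG, both at 0.25 μg/mL and 1 h at room temperature. Plates were imaged on the MSD system in read buffer T.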
row,Compound,IC50 [µM]
1,"CN(c1nc2sc(-c3ccc(-c4ccn(C)c(=O)c4)cc3O)nc2s1)C1CCNCC1 [Compound 36, 4-(3-hydroxy-4-{5-[methyl(piperidin-4-yl)amino][1,3]thiazolo[5,4-d][1,3]thiazol-2-yl}phenyl)-1-methylpyridin-2(1H)-one]",0.1 to 0.5
2,"CC1(C)CC(Oc2nc3sc(-c4ccc(-c5cn[nH]c5)cc4O)nc3s2)CC(C)(C)N1 [Compound 37, 5-(1H-pyrazol-4-yl)-2-{5-[(2,2,6,6-tetramethylpiperidin-4-yl)oxy][1,3]thiazolo[5,4-d][1,3]thiazol-2-yl}phenol]",≤ 0.1
3,"C[C@H]1C[C@H](N(C)c2nc3sc(-c4ncc(-n5ccnc5)c5cc[nH]c45)nc3s2)CCN1 [Compound 80, 5-[4-(1H-imidazol-1-yl)-1H-pyrrolo[2,3-c]pyridin-7-yl]-N-methyl-H-[(2S,4R)-2-methylpiperidin-4-yl][1,3]thiazolo[5,4-d][1,3]thiazol-2-amine]",≤ 0.1
4,"CN1C2CCC1CC(Nc1nn3cc(-c4ccc(-c5cn[nH]c5)cc4O)nc3s1)C2 (stereo not drawn) [Compound 19, 2-(2-{[(3-exo)-8-methyl-8-azabicyclo[3.2.1]oct-3-yl]amino]imidazo[2,1-b][1,3,4]thiadiazol-6-yl)-5-(1H-pyrazol-4-yl)phenol]",0.1 to 0.5
5,"CC1CC(N(C)c2nc3sc(-c4ccc(-n5nccn5)c5cc[nH]c45)nc3s2)CCN1C (centres unmarked) [Compound 118, N-(1,2-dimethylpiperidin-4-yl)-N-methyl-5-[4-(2H-1,2,3-triazol-2-yl)-1H-indol-7-yl][1,3]thiazolo[5,4-d][1,3]thiazol-2-amine]",0.5 to 1
6,"CN(c1nc2sc(-c3ncc(-n4ccnc4)cc3O)nc2s1)C1CCNCC1 [Compound 60, 5-(1H-imidazol-1-yl)-2-{5-[methyl(piperidin-4-yl)amino][1,3]thiazolo[5,4-d][1,3]thiazol-2-yl}pyridin-3-ol]",1 to 3
7,"CN(c1nc2sc(-c3ccc(-c4cn[nH]c4)cc3O)nc2s1)[C@@H]1CCNC1 [Compound 55, 2-(5-{methyl[(3R)-pyrrolidin-3-yl]amino}[1,3]thiazolo[5,4-d][1,3]thiazol-2-yl)-5-(1H-pyrazol-4-yl)phenol]",≤ 0.1
8,"Cn1cc2cc(-c3nn4cc(C5CCNCC5)nc4s3)cc(F)c2n1 [Compound 28, 7-fluoro-2-methyl-5-[6-(piperidin-4-yl)imidazo[2,1-b][1,3,4]thiadiazol-2-yl]-2H-indazole]",≤ 0.1
9,"CN(c1nc2sc(-c3ncc(-c4cn[nH]c4)c4[nH]cnc34)nc2s1)C1CC(C)(C)NC(C)(C)C1 [Compound 136, N-methyl-5-[7-(1H-pyrazol-4-yl)-1H-imidazo[4,5-c]pyridin-4-yl]-N-(2,2,6,6-tetramethylpiperidin-4-yl)[1,3]thiazolo[5,4-d][1,3]thiazol-2-amine]",≤ 0.1
10,"CN1C[C@@H]2CN(c3nc4sc(-c5ccc(-c6cn[nH]c6)cc5O)nc4s3)C[C@@H]2C1 [Compound 211, 2-{5-[(3aR,6aS)-5-methylhexahydropyrrolo[3,4-c]pyrrol-2(1H)-yl][1,3]thiazolo[5,4-d][1,3]thiazol-2-yl}-5-(1H-pyrazol-4-yl)phenol]",1 to 3
11,"CN(c1nc2sc(-c3ncc(-n4cc(F)cn4)cc3O)nc2s1)C1CCNCC1 [Compound 62, 5-(4-fluoropyrazol-1-yl)-2-[5-[methyl(4-piperidyl)amino]thiazolo[5,4-d]thiazol-2-yl]pyridin-3-ol]",1 to 3
12,"Fc1cc(-c2nc3sc(N4CC5(CCNCC5)C4)nc3s2)c(F)cc1-c1cn[nH]c1 [Compound 177, 2-{5-[2,5-difluoro-4-(1H-pyrazol-4-yl)phenyl][1,3]thiazolo[5,4-d][1,3]thiazol-2-yl}-2,7-diazaspiro[3.5]nonane]",1 to 3
13,"C[C@H]1C[C@@H](N(C)c2nc3sc(-c4ccc(-c5cn[nH]c5)c5cc[nH]c45)nc3s2)CCN1 [Compound 97, N-methyl-N-[(2S,4S)-2-methylpiperidin-4-yl]-5-[4-(1H-pyrazol-4-yl)-1H-indol-7-yl][1,3]thiazolo[5,4-d][1,3]thiazol-2-amine]",≤ 0.1
14,"CCN1CCC(N(C)c2nc3sc(-c4ccc(-c5cnn(C)c5)cc4O)nc3s2)CC1 [Compound 59, 2-{5-[(1-ethylpiperidin-4-yl)(methyl)amino][1,3]thiazolo[5,4-d][1,3]thiazol-2-yl}-5-(1-methyl-1H-pyrazol-4-yl)phenol]",≤ 0.1
15,"CN(c1nc2sc(-c3cc(F)c(-c4cn[nH]c4)cc3F)nc2s1)C1CCNCC1 [Compound 20, 5-[2,5-difluoro-4-(1H-pyrazol-4-yl)phenyl]-N-methyl-N-(piperidin-4-yl)[1,3]thiazolo[5,4-d][1,3]thiazol-2-amine]",0.1 to 0.5
16,"CC(C)N1CCC(N(C)c2nc3sc(-c4ncc(-c5cn[nH]c5)cc4O)nc3s2)CC1 [Compound 205, 2-(5-{methyl[1-(propan-2-yl)piperidin-4-yl]amino}[1,3]thiazolo[5,4-d][1,3]thiazol-2-yl)-5-(1H-pyrazol-4-yl)pyridin-3-ol]",≤ 0.1

row,Compound,IC50 [µM]
1,"CN(c1nc2sc(-c3ncc(Br)cc3O)nc2s1)[C@@H]1C[C@H]2CC[C@@H](C1)N2 [Compound 185, 2-(5-{[(1R,3s,5S)-8-azabicyclo[3.2.1]octan-3-yl](methyl)amino}[1,3]thiazolo[5,4-d][1,3]thiazol-2-yl)-5-bromopyridin-3-ol]",≤ 0.1
2,"CN(c1nc2sc(-c3ncc(-c4cncs4)cc3O)nc2s1)C1CCNCC1 [Compound 64, 5-(thiazol-5-yl)-2-{5-[methyl(piperidin-4-yl)amino][1,3]thiazolo[5,4-d][1,3]thiazol-2-yl}pyridin-3-ol]",0.1 to 0.5
3,"CN1CCCC2(CCN2c2nc3sc(-c4ncc(-c5cn[nH]c5)c5cc[nH]c45)nc3s2)C1 (centres unmarked) [Compound 96, 7-[5-(6-methyl-1,6-diazaspiro[3.5]nonan-1-yl)[1,3]thiazolo[5,4-d][1,3]thiazol-2-yl]-4-(1H-pyrazol-4-yl)-1H-pyrrolo[2,3-c]pyridine]",≤ 0.1
4,"CCCN1CCC(N(C)c2nc3sc(-c4ncc(-c5cn[nH]c5)cc4O)nc3s2)CC1 [Compound 206, 2-{5-[methyl(1-propylpiperidin-4-yl)amino][1,3]thiazolo[5,4-d][1,3]thiazol-2-yl}-5-(1H-pyrazol-4-yl)pyridin-3-ol]",≤ 0.1
5,"CN(c1nc2sc(-n3cnc(-c4cn[nH]c4)cc3=O)nc2s1)[C@H]1C[C@]2(C)CC[C@](C)(C1)N2 [Compound 144, 3-(5-{[(1R,3s,5S)-1,5-dimethyl-8-azabicyclo[3.2.1]octan-3-yl](methyl)amino}[1,3]thiazolo[5,4-d][1,3]thiazol-2-yl)-6-(1H-pyrazol-4-yl)pyrimidin-4(3H)-one]",≤ 0.1
6,"CN1CCC(Nc2nc3sc(-c4ccc(-c5cn[nH]c5)cc4O)nc3s2)CC1 [Compound 23, 2-{5-[(1-methylpiperidin-4-yl)amino][1,3]thiazolo[5,4-d][1,3]thiazol-2-yl}-5-(1H-pyrazol-4-yl)phenol]",≤ 0.1
7,"CN(c1nc2sc(-c3ncc(-c4cn[nH]c4)cc3O)nc2s1)[C@@H]1C[C@H]2CC[C@@H](C1)N2 [Compound 203, 2-(5-{[(1R,3s,5S)-8-azabicyclo[3.2.1]octan-3-yl](methyl)amino}[1,3]thiazolo[5,4-d][1,3]thiazol-2-yl)-5-(1H-pyrazol-4-yl)pyridin-3-ol]",≤ 0.1
8,"C[C@@H]1C[C@@H](Oc2nc3sc(-c4ccc(-c5cn[nH]c5)c5cc[nH]c45)nc3s2)CCN1 [Compound 82, 7-(5-{[(2R,4S)-2-methylpiperidin-4-yl]oxy}[1,3]thiazolo[5,4-d][1,3]thiazol-2-yl)-4-(1H-pyrazol-4-yl)-1H-indole]",≤ 0.1
9,"C[C@@H]1C[C@@H](N(C)c2nc3sc(-c4ncc(-c5cnn(C)c5)c5cc[nH]c45)nc3s2)CCN1 [Compound 91, N-methyl-N-[(2R,4S)-2-methylpiperidin-4-yl]-5-[4-(1-methyl-1H-pyrazol-4-yl)-1H-pyrrolo[2,3-c]pyridin-7-yl][1,3]thiazolo[5,4-d][1,3]thiazol-2-amine]",≤ 0.1
10,"Cn1cc2cc(-c3nc4sc(C5CCNCC5)nc4s3)cc(F)c2n1 [Compound 11, 7-fluoro-2-methyl-5-[5-(piperidin-4-yl)[1,3]thiazolo[5,4-d][1,3]thiazol-2-yl]-2H-indazole]",≤ 0.1
11,"C[C@@H]1C[C@@H](N(C)c2nc3sc(-c4ccc(-c5cn[nH]c5)cc4O)nc3s2)C[C@H](C)N1 [Compound 34, 2-(5-{[(2R,4s,6S)-2,6-dimethylpiperidin-4-yl](methyl)amino}[1,3]thiazolo[5,4-d][1,3]thiazol-2-yl)-5-(1H-pyrazol-4-yl)phenol]",≤ 0.1
12,"N-methyl-N-[(2S,4R)-2-methylpiperidin-4-yl]-5-[4-(1H-pyrazol-4-yl)-1H-pyrrolo[2,3-c]pyridin-7-yl][1,3]thiazolo[5,4-d][1,3]thiazol-2-amine [Compound 72]",≤ 0.1
13,"N-methyl-N-[(2S,4R)-2-methylpiperidin-4-yl]-5-[4-(1H-pyrazol-4-yl)-1H-pyrrolo[2,3-c]pyridin-7-yl][1,3]thiazolo[5,4-d][1,3]thiazol-2-amine [Compound 71]",0.1 to 0.5
14,"CC1CC(N(C)c2nc3sc(-n4ccc(-c5cn[nH]c5)cc4=O)nc3s2)CCN1C (centres unmarked) [Compound 180, 1-{5-[(1,2-dimethylpiperidin-4-yl)(methyl)amino][1,3]thiazolo[5,4-d][1,3]thiazol-2-yl}-4-(1H-pyrazol-4-yl)pyridin-2(1H)-one]",≤ 0.1
15,"CN(c1nc2sc(-c3ncc(-c4cn[nH]c4)n4ccnc34)nc2s1)C1CCNCC1 [Compound 101, N-methyl-N-(piperidin-4-yl)-5-[5-(1H-pyrazol-4-yl)imidazo[1,2-a]pyrazin-8-yl][1,3]thiazolo[5,4-d][1,3]thiazol-2-amine]",1 to 3
16,"Cc1cn(-c2cnc(-c3nc4sc(N(C)[C@H]5C[C@]6(C)CC[C@](C)(C5)N6)nc4s3)cn2)cn1 [Compound 88, N-[(1R,3s,5S)-1,5-dimethyl-8-azabicyclo[3.2.1]octan-3-yl]-N-methyl-5-[5-(4-methyl-1H-imidazol-1-yl)pyrazin-2-yl][1,3]thiazolo[5,4-d][1,3]thiazol-2-amine]",≤ 0.1
